Laboratory results from ChEMBL document CHEMBL1140860, “Synthesis and evaluation of dihydroartemisinin and dihydroartemisitene acetal dimers showing anticancer and antiprotozoal activity” (Bioorg Med Chem, 2009).

Columns and labels:
OVCAR-5 = assay: Growth inhibition of human OVCAR5 cells after 48 hrs by sulforhodamine B assay; format: functional; conditions: OVCAR-5, 48 h
MDA-MB-231 = assay: Growth inhibition of human MDA-MB-231 cells after 48 hrs by sulforhodamine B assay; format: functional; conditions: MDA-MB-231, 48 h
SK-MEL-5 = assay: Growth inhibition of human SK-MEL-5 cells after 48 hrs by sulforhodamine B assay; format: functional; conditions: SK-MEL-5, 48 h
IGROV-1 = assay: Growth inhibition of human IGROV1 cells after 48 hrs by sulforhodamine B assay; format: functional; conditions: IGROV-1, 48 h
M14 = assay: Growth inhibition of human M14 cells after 48 hrs by sulforhodamine B assay; format: functional; conditions: M14, 48 h
NCI-H522 = assay: Growth inhibition of human NCI-H522 cells after 48 hrs by sulforhodamine B assay; format: functional; conditions: NCI-H522, 48 h
UACC-257 = assay: Growth inhibition of human UACC257 cells after 48 hrs by sulforhodamine B assay; format: functional; conditions: UACC-257, 48 h
CCRF-CEM = assay: Growth inhibition of human CCRF-CEM cells after 48 hrs by sulforhodamine B assay; format: functional
MDA-MB-435 = assay: Growth inhibition of human MDA-MB-435 cells after 48 hrs by sulforhodamine B assay; format: functional; conditions: MDA-MB-435, 48 h
SR = assay: Growth inhibition of human SR cells after 48 hrs by sulforhodamine B assay; format: functional
NCI-H226 = assay: Growth inhibition of human NCI-H226 cells after 48 hrs by sulforhodamine B assay; format: functional; conditions: NCI-H226, 48 h
U-251 = assay: Growth inhibition of human U251 cells after 48 hrs by sulforhodamine B assay; format: functional; conditions: U-251, 48 h
PC-3 = assay: Growth inhibition of human PC3 cells after 48 hrs by sulforhodamine B assay; format: functional; conditions: PC-3, 48 h
NCI-H460 = assay: Growth inhibition of human NCI-H460 cells after 48 hrs by sulforhodamine B assay; format: functional; conditions: NCI-H460, 48 h
SK-MEL-28 = assay: Growth inhibition of human SK-MEL-28 cells after 48 hrs by sulforhodamine B assay; format: functional; conditions: SK-MEL-28, 48 h
HOP-62 = assay: Growth inhibition of human HOP62 cells after 48 hrs by sulforhodamine B assay; format: functional; conditions: HOP-62, 48 h
[1] = Cytotoxicity against african green monkey Vero cells after 48 hrs by neutral red assay; format: cell-based; conditions: chlorocebus sabaeus, read-out: TC50
UACC-62 = assay: Growth inhibition of human UACC62 cells after 48 hrs by sulforhodamine B assay; format: functional; conditions: UACC-62, 48 h
CAKI-1 = assay: Growth inhibition of human Caki1 cells after 48 hrs by sulforhodamine B assay; format: functional; conditions: CAKI-1, 48 h
Malme-3M = assay: Growth inhibition of human MALME-3M cells after 48 hrs by sulforhodamine B assay; format: functional
[2] = Selectivity index, ratio of TC50 for african green monkey (Cercopithecus aethiops) Vero cells to IC50 for chloroquine-resistant Plasmodium falciparum W2; format: toxicity, cell-based
A498 = assay: Growth inhibition of human A498 cells after 48 hrs by sulforhodamine B assay; format: functional; conditions: A498, 48 h
HOP-92 = assay: Growth inhibition of human HOP92 cells after 48 hrs by sulforhodamine B assay; format: functional; conditions: HOP-92, 48 h
A549 = assay: Growth inhibition of human A549 cells after 48 hrs by sulforhodamine B assay; format: functional; conditions: A549, 48 h
HCT-116 = assay: Growth inhibition of human HCT116 cells after 48 hrs by sulforhodamine B assay; format: functional; conditions: HCT-116, 48 h
[3] = Growth inhibition of human […] cells after 48 hrs by sulforhodamine B assay; format: functional
OVCAR-8 = assay: Growth inhibition of human OVCAR8 cells after 48 hrs by sulforhodamine B assay; format: functional; conditions: OVCAR-8, 48 h
NCI/ADR-RES = assay: Growth inhibition of human NCI/ADR-RES cells after 48 hrs by sulforhodamine B assay; format: functional
MOLT-4 = assay: Growth inhibition of human MOLT4 cells after 48 hrs by sulforhodamine B assay; format: functional; conditions: MOLT-4, 48 h
BT-549 = assay: Growth inhibition of human BT549 cells after 48 hrs by sulforhodamine B assay; format: functional; conditions: BT-549, 48 h
HCC 2998 = assay: Growth inhibition of human HCC2998 cells after 48 hrs by sulforhodamine B assay; format: functional; conditions: HCC 2998, 48 h
MCF7 = assay: Growth inhibition of human MCF7 cells after 48 hrs by sulforhodamine B assay; format: functional; conditions: MCF7, 48 h
RXF 393 = assay: Growth inhibition of human RXF393 cells after 48 hrs by sulforhodamine B assay; format: functional; conditions: RXF 393, 48 h
OVCAR-3 = assay: Growth inhibition of human OVCAR-3 cells after 48 hrs by sulforhodamine B assay; format: functional; conditions: OVCAR-3, 48 h
Plasmodium falciparum = assay: Antimalarial activity after 72 hrs against chloroquine-sensitive Plasmodium falciparum D6 infected in erythrocytes by LDH assay; format: functional, organism-based; conditions: D6, 72 h
HL-60 = assay: Growth inhibition of human HL-60(TB) cells after 48 hrs by sulforhodamine B assay; format: functional; conditions: HL-60, 48 h
EKVX = assay: Growth inhibition of human EKVX cells after 48 hrs by sulforhodamine B assay; format: functional
TK-10 = assay: Growth inhibition of human TK10 cells after 48 hrs by sulforhodamine B assay; format: functional; conditions: TK-10, 48 h
SF-268 = assay: Growth inhibition of human SF268 cells after 48 hrs by sulforhodamine B assay; format: functional; conditions: SF-268, 48 h
MDA-N = assay: Growth inhibition of human MDA-N cells after 48 hrs by sulforhodamine B assay; format: functional
KM12 = assay: Growth inhibition of human KM12 cells after 48 hrs by sulforhodamine B assay; format: functional; conditions: KM12, 48 h
[4] = Growth inhibition of human Hs 578T cells after 48 hrs by sulforhodamine B assay; format: functional
HCT-15 = assay: Growth inhibition of human HCT15 cells after 48 hrs by sulforhodamine B assay; format: functional; conditions: HCT-15, 48 h
ACHN = assay: Growth inhibition of human ACHN cells after 48 hrs by sulforhodamine B assay; format: functional
SW-620 = assay: Growth inhibition of human SW620 cells after 48 hrs by sulforhodamine B assay; format: functional; conditions: SW-620, 48 h
[5] = Selectivity index, ratio of TC50 for african green monkey (Cercopithecus aethiops) Vero cells to IC50 for chloroquine-sensitive Plasmodium falciparum D6; format: toxicity, cell-based
HT-29 = assay: Growth inhibition of human HT-29 cells after 48 hrs by sulforhodamine B assay; format: functional; conditions: HT-29, 48 h
LOX IMVI = assay: Growth inhibition of human LOXIMVI cells after 48 hrs by sulforhodamine B assay; format: functional
786-0 = assay: Growth inhibition of human 786-0 cells after 48 hrs by sulforhodamine B assay; format: functional; conditions: 786-0, 48 h
SF-295 = assay: Growth inhibition of human SF295 cells after 48 hrs by sulforhodamine B assay; format: functional; conditions: SF-295, 48 h

Question: With `C[C@H]1[C@@H](O[C@H]2CC[C@H](O[C@H]3O[C@@H]4O[C@@]5(C)CC[C@H]6[C@H](C)CC[C@@H]([C@H]3C)[C@@]46OO5)CC2)O[C@@H]2O[C@@]3(C)CC[C@H]4[C@H](C)CC[C@@H]1[C@@]24OO3` as the compound, how does the GI50 (OVCAR-5) read?
Answer: 0.042 µM

Question: And the GI50 (MDA-MB-231)?
Answer: 0.52 µM

Question: And the GI50 (SK-MEL-5)?
Answer: 0.049 µM

Question: What about the GI50 (IGROV-1) of the same compound?
Answer: 0.055 µM

Question: What about the GI50 (M14) of the same compound?
Answer: 0.061 µM

Question: What about the GI50 (NCI-H522) of the same compound?
Answer: 0.036 µM

Question: And the GI50 (UACC-257)?
Answer: 0.074 µM

Question: And the GI50 (CCRF-CEM)?
Answer: < 0.01 µM

Question: What about the GI50 (MDA-MB-435) of the same compound?
Answer: 0.07 µM

Question: What about the GI50 (SR) of the same compound?
Answer: 0.306 µM

Question: What about the GI50 (NCI-H226) of the same compound?
Answer: 0.025 µM

Question: And the GI50 (U-251)?
Answer: 0.016 µM

Question: And the GI50 (PC-3)?
Answer: < 0.01 µM

Question: What about the GI50 (NCI-H460) of the same compound?
Answer: 0.028 µM

Question: What about the GI50 (SK-MEL-28) of the same compound?
Answer: 98.8 µM

Question: What about the GI50 (HOP-62) of the same compound?
Answer: 0.065 µM

Question: And the CC50 at 48 h [1]?
Answer: > 7340 µM

Question: What about the GI50 (UACC-62) of the same compound?
Answer: 0.045 µM

Question: What about the GI50 (CAKI-1) of the same compound?
Answer: 0.326 µM

Question: What about the GI50 (Malme-3M) of the same compound?
Answer: 0.071 µM

Question: And the selectivity ratio [2]?
Answer: > 553

Question: And the GI50 (A498)?
Answer: 0.376 µM

Question: And the GI50 (HOP-92)?
Answer: 0.021 µM

Question: And the GI50 (A549)?
Answer: 0.0188 µM

Question: And the GI50 (HCT-116)?
Answer: < 0.01 µM

Question: What about the GI50 [3] of the same compound?
Answer: < 0.01 µM

Question: And the GI50 (OVCAR-8)?
Answer: 0.057 µM

Question: What about the GI50 (NCI/ADR-RES) of the same compound?
Answer: 0.13 µM

Question: What about the GI50 (MOLT-4) of the same compound?
Answer: 0.099 µM

Question: And the GI50 (BT-549)?
Answer: 0.021 µM

Question: And the GI50 (HCC 2998)?
Answer: 0.018 µM

Question: And the GI50 (MCF7)?
Answer: 0.042 µM

Question: And the GI50 (RXF 393)?
Answer: 0.294 µM

Question: And the GI50 (OVCAR-3)?
Answer: 0.067 µM

Question: What about the IC50 (Plasmodium falciparum) of the same compound?
Answer: 5.4 µM

Question: And the GI50 (HL-60)?
Answer: 0.032 µM

Question: What about the GI50 (EKVX) of the same compound?
Answer: 0.028 µM

Question: What about the GI50 (TK-10) of the same compound?
Answer: 0.119 µM

Question: What about the GI50 (SF-268) of the same compound?
Answer: 0.108 µM

Question: And the GI50 (MDA-N)?
Answer: 0.077 µM

Question: And the GI50 (KM12)?
Answer: 0.011 µM

Question: What about the GI50 [4] of the same compound?
Answer: 0.063 µM

Question: What about the GI50 (HCT-15) of the same compound?
Answer: < 0.01 µM

Question: And the GI50 (ACHN)?
Answer: 0.042 µM

Question: And the GI50 (SW-620)?
Answer: 0.024 µM

Question: And the selectivity ratio [5]?
Answer: 1360

Question: What about the GI50 (HT-29) of the same compound?
Answer: 0.011 µM

Question: What about the GI50 (LOX IMVI) of the same compound?
Answer: 0.013 µM

Question: What about the GI50 (786-0) of the same compound?
Answer: 0.027 µM

Question: What about the GI50 (SF-295) of the same compound?
Answer: 0.061 µM
